Experimental findings from patent US20250136722A1, “CYTOTOXICITY TARGETING CHIMERAS” (GLAXOSMITHKLINE INTELLECTUAL PROPERTY DEVELOPMENT LIMITED, priority 2021, published 2025) are described below.

The structures appear in SMILES notation. “And” between values parts separate entries of the source, which are not always exact repeats. Equal entries are not always repeated.

In assay [1] the target is T1, CHOK1 cells engineered to overexpress human CCR2 (Homo sapiens, UniProt P41597).
T1 construct: expressed in transfected cells; host or cells: CHOK1 cells
In words: Antibody dependent cellular cytotoxicity (ADCC) reporter assay (Example 199). It counts as cell-based. The settings on record: with anti-cotinine antibody SEQ ID NO: 11/12; CHOK1-human CCR2 target cells, Jurkat FcγRIIIa NFAT-luciferase reporter cells; 12-18 hours; read-out: ADCC Reporter Assay pEC50 (converted). An outline of the steps:
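CHOK1-hCCR2 target cells are co-incubated for 12–18 h with Jurkat FcγRIIIa/NFAT-luciferase reporter cells, ARM compound (1 pM–10 μM) and anti-cotinine antibody with a DE-mutant human IgG1 Fc (0.01–200 μg/mL). Luminescence is expressed as signal:background against no-compound wells; EC50 comes from nonlinear fit and is reported as pEC50, averaged across runs.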
(A reporter such as luciferase makes a cellular process visible.)

Assay [2] addresses Anti-cotinine antibody (SEQ ID NO: 11 / SEQ ID NO: 12, rabbit variable region with human IgG1 Fc domain). The assay is described as follows: Binding of anti-cotinine antibody to ARM compounds by SPR, Biacore T200, 37° C. (Example 202). To be noted: pH 7.4, rabbit variable region/human IgG1 Fc antibody captured on protein A. The method, then: Anti-cotinine antibodies having a heavy chain sequence of SEQ ID NO: 11 and a light chain sequence of SEQ ID NO: 12 (rabbit variable region with human IgG1 Fc domain containing a DE mutation (S239D/1332E)) were captured on one or more flow cells of a protein A sensor chip (Cytiva) using a Biacore T200 while reserving flow cell 1 as a reference. Following capture, a 3000 second wait step was included to reduce drift during compound analysis. ARM compounds of Formula (I) were then injected at 100 μL/min with 200 and 2000 second association and dissociation times. The entire experiment was run at 37° C. with running buffer containing 10 mM HEPES pH 7.4, 150 mM NaCl, 0.005% P20 and 1% DMSO. ARM compounds of Formula (I) were titrated with a top concentration of 200 nM using a 3-fold 5-point dilution series and a corresponding 5-injection buffer cycle was run for blank subtraction. Data were double referenced by subtracting the response of the reference flow cell from that of the antibody-containing flow cell and subsequently subtracting the referenced blank sensorgrams. Following compound analysis, the surface was regenerated using a 30 second injection of pH 1.5 glycine at a flow rate of 30 μL/min after which antibody was re-captured. The experiment was run using Biacore T200 control software and evaluated using Biacore T200 Evaluation software. Curves were fit with a 1:1 kinetic binding model to obtain kon(1/Ms), koff(1/s), Kd (M) determined as koff/kon, and residence time determined as 1/koff. (s).
Anti-cotinine antibody was tested for binding to ARMs compounds of Formula (I) of the invention in the above assay in or more experimental runs and the results are shown in Table 5 below. Affinity is reported as a pKd value. The pKd value is the negative log of the Kd value, wherein the Kd value is the dissociation constant measured in molar (M) as noted above. For compounds tested in more than one experimental run, the pKd value is reported as an average.

`CC(C)N(C)[C@@H]1CC[C@H](N2CC[C@H](Nc3ncnc4ccc(C(F)(F)F)cc34)C2=O)[C@H](NC(=O)COCCNC(=O)CCNC(=O)COCCOCCNC(=O)[C@H]2CC(=O)N(C)[C@@H]2c2cccnc2)C1` [Example 79]: in assay [1], the EC50 was 5.2 nM. In addition, in assay [2], the “pKd of Antibody for ARM Compound of Formula (I)” value (shortened to “pKd of Antibody”) was 9.126.
For `CC(C)N(C)[C@@H]1CC[C@H](N2CC[C@H](Nc3ncnc4ccc(C(F)(F)F)cc34)C2=O)[C@H](NC(=O)COCCNC(=O)CNC(=O)CCOCCOCCNC(=O)[C@H]2CC(=O)N(C)[C@@H]2c2cccnc2)C1` [Example 80] the same measures were 1.58 nM and 9.109.
The matching figures for `CC(C)N(C)[C@@H]1CC[C@H](N2CC[C@H](Nc3ncnc4ccc(C(F)(F)F)cc34)C2=O)[C@H](NC(=O)[C@H]2CC[C@@H](NC(=O)CNC(=O)CCOCCOCCNC(=O)[C@H]3CC(=O)N(C)[C@@H]3c3cccnc3)CC2)C1` [Example 83]: 0.269 nM and 9.302.
In the case of `CC(C)N(C)[C@@H]1CC[C@H](N2CC[C@H](Nc3ncnc4ccc(C(F)(F)F)cc34)C2=O)[C@H](Nc2c(NCCOCCOCCOCCOCCOCCNC(=O)[C@H]3CC(=O)N(C)[C@@H]3c3cccnc3)c(=O)c2=O)C1` [Example 85, (2S,3S)-N-(17-((2-(((1R,2S,5R)-5-(Isopropyl(methyl)amino)-2-((S)-2-oxo-3-((6-(trifluoromethyl)quinazolin-4-yl)amino)pyrrolidin-1-yl)cyclohexyl)amino)-3,4-dioxocyclobut-1-en-1-yl)amino)-3,6,9,12,15-pentaoxaheptadecyl)-1-methyl-5-oxo-2-(pyridin-3-yl)pyrrolidine-3-carboxamide], the EC50 in assay [1] is 8.24 nM. Also, the “pKd of Antibody” value in assay [2] amounted to 9.6885.
Take `CC(C)N(C)[C@@H]1CC[C@H](N2CC[C@H](Nc3ncnc4ccc(C(F)(F)F)cc34)C2=O)[C@H](NC(=O)[C@H]2CC[C@@H](NC(=O)CCOCCNC(=O)COCCNC(=O)[C@H]3CC(=O)N(C)[C@@H]3c3cccnc3)CC2)C1` [Example 98, (2S,3S)-N-(2-(2-((2-(3-(((1S,4s)-4-(((1R,2S,5R)-5-(Isopropyl(methyl)amino)-2-((S)-2-oxo-3-((6-(trifluoromethyl)quinazolin-4-yl)amino)pyrrolidin-1-yl)cyclohexyl)carbamoyl)cyclohexyl)amino)-3-oxopropoxy)ethyl)amino)-2-oxoethoxy)ethyl)-1-methyl-5-oxo-2-(pyridin-3-yl)pyrrolidine-3-carboxamide]: in assay [1], the EC50 was 1 nM and 0.631 nM. Moreover, the “pKd of Antibody” value in assay [2] is 9.0095.
`CN1C(=O)C[C@H](C(=O)NCCOCC(=O)NCCOCC(=O)NCCOCCC(=O)N[C@@H]2C[C@H](NC(C)(C)C)CC[C@@H]2N2CC[C@H](Nc3ncnc4ccc(C(F)(F)F)cc34)C2=O)[C@H]1c1cccnc1` [Example 103]: in assay [1], the EC50 is 1.56 nM and 0.577 nM. Besides, the “pKd of Antibody” value in assay [2] is listed as 9.0985.
For `CC(C)N(C)[C@@H]1CC[C@H](N2CC[C@H](Nc3ncnc4ccc(C(F)(F)F)cc34)C2=O)[C@H](NC(=O)COCCNC(=O)CCOCCNC(=O)COCCNC(=O)[C@H]2CC(=O)N(C)[C@@H]2c2cccnc2)C1` [Example 104, (2S,3S)-N-(18-(((1R,2S,5R)-5-(Isopropyl(methyl)amino)-2-((S)-2-oxo-3-((6-(trifluoromethyl)quinazolin-4-yl)amino)pyrrolidin-1-yl)cyclohexyl)amino)-5,12,18-trioxo-3,9,16-trioxa-6,13-diazaoctadecyl)-1-methyl-5-oxo-2-(pyridin-3-yl)pyrrolidine-3-carboxamide], the EC50 in assay [1] is 2.28 nM. For the same compound, the “pKd of Antibody” value in assay [2] worked out at 9.051.
For `CC(C)N(C)[C@@H]1CC[C@H](N2CC[C@H](Nc3ncnc4ccc(C(F)(F)F)cc34)C2=O)[C@H](NC(=O)CCOCCNC(=O)[C@H]2CC[C@H](NC(=O)COCCNC(=O)[C@H]3CC(=O)N(C)[C@@H]3c3cccnc3)CC2)C1` [Example 108] the same measures were 0.0501 nM and 8.9855.
The matching figures for `CC(C)N(C)[C@@H]1CC[C@H](N2CC[C@H](Nc3ncnc4ccc(C(F)(F)F)cc34)C2=O)[C@H](NC(=O)COCCNC(=O)[C@H]2CC[C@@H](NC(=O)CCOCCNC(=O)[C@H]3CC(=O)N(C)[C@@H]3c3cccnc3)CC2)C1` [Example 109]: 0.17 nM and 8.951.
For `CC(C)N(C)[C@@H]1CC[C@H](N2CC[C@H](Nc3ncnc4ccc(C(F)(F)F)cc34)C2=O)[C@H](NC(=O)CCOCCNC(=O)[C@H]2CC[C@@H](NC(=O)CCOCCNC(=O)[C@H]3CC(=O)N(C)[C@@H]3c3cccnc3)CC2)C1` [Example 110] the same measures were 0.167 nM and 8.9085.
For `CC(C)N(C)[C@@H]1CC[C@H](N2CC[C@H](Nc3ncnc4ccc(C(F)(F)F)cc34)C2=O)[C@H](NC(=O)[C@H]2CC[C@@H](NC(=O)CCO[C@H]3CC[C@H](OCCNC(=O)[C@H]4CC(=O)N(C)[C@@H]4c4cccnc4)CC3)CC2)C1` [Example 112, (2S,3S)-N-(2-(((1S,4S)-4-(3-(((1S,4S)-4-(((1R,2S,5R)-5-(Isopropyl(methyl)amino)-2-((S)-2-oxo-3-((6-(trifluoromethyl)quinazolin-4-yl)amino)pyrrolidin-1-yl)cyclohexyl)carbamoyl)cyclohexyl)amino)-3-oxopropoxy)cyclohexyl)oxy)ethyl)-1-methyl-5-oxo-2-(pyridin-3-yl)pyrrolidine-3-carboxamide], the EC50 in assay [1] was 0.398 nM. For the same compound, the “pKd of Antibody” value in assay [2] was found to be 9.343.
Regarding `CC(C)N(C)[C@@H]1CC[C@H](N2CC[C@H](Nc3ncnc4ccc(C(F)(F)F)cc34)C2=O)[C@H](NC(=O)[C@H]2CC[C@H](NC(=O)CCO[C@H]3CC[C@H](OCCNC(=O)[C@H]4CC(=O)N(C)[C@@H]4c4cccnc4)CC3)CC2)C1` [Example 113], the EC50 in assay [1] is 4.82 nM and 8.17 nM. The “pKd of Antibody” value in assay [2] amounted to 9.767.
As for `CC(C)N(C)[C@@H]1CC[C@H](N2CC[C@H](Nc3ncnc4ccc(C(F)(F)F)cc34)C2=O)[C@H](NC(=O)[C@H]2C[C@@H](NC(=O)CCO[C@H]3CC[C@H](OCCNC(=O)[C@H]4CC(=O)N(C)[C@@H]4c4cccnc4)CC3)C2)C1` [Example 115], in assay [1], the EC50 was 0.408 nM and 0.305 nM. The “pKd of Antibody” value in assay [2] is 9.363.
Consider `CC(C)N(C)[C@@H]1CC[C@H](N2CC[C@H](Nc3ncnc4ccc(C(F)(F)F)cc34)C2=O)[C@H](NC(=O)CCOCCOCCNC(=O)NCCOCCOCCNC(=O)[C@H]2CC(=O)N(C)[C@@H]2c2cccnc2)C1` [Example 119, (2S,3S)-N-(20-(((1R,2S,5R)-5-(Isopropyl(methyl)amino)-2-((S)-2-oxo-3-((6-(trifluoromethyl)quinazolin-4-yl)amino)pyrrolidin-1-yl)cyclohexyl)amino)-10,20-dioxo-3,6,14,17-tetraoxa-9,11-diazaicosyl)-1-methyl-5-oxo-2-(pyridin-3-yl)pyrrolidine-3-carboxamide], for which, in assay [1], the EC50 is 1.58 nM. Besides, in assay [2], the “pKd of Antibody” value is listed as 9.1735.
As for `CC(C)N(C)[C@@H]1CC[C@H](N2CC[C@H](Nc3ncnc4ccc(C(F)(F)F)cc34)C2=O)[C@H](NC(=O)[C@H]2CC[C@H](NC(=O)CCCOCCCCOCCNC(=O)[C@H]3CC(=O)N(C)[C@@H]3c3cccnc3)CC2)C1` [Example 121, (2S,3S)-N-(2-(4-(4-(((1R,4r)-4-(((1R,2S,5R)-5-(Isopropyl(methyl)amino)-2-((S)-2-oxo-3-((6-(trifluoromethyl)quinazolin-4-yl)amino)pyrrolidin-1-yl)cyclohexyl)carbamoyl)cyclohexyl)amino)-4-oxobutoxy)butoxy)ethyl)-1-methyl-5-oxo-2-(pyridin-3-yl)pyrrolidine-3-carboxamide], the EC50 in assay [1] was 5.28 nM. In addition, in assay [2], the “pKd of Antibody” value worked out at 9.332.
